Legend:
[1] = Gastric tolerability after two weeks oral treatment in L-NAME hypertensive rats; assay type: in vivo; conditions: 10 mg/kg daily for two weeks, hypertension induced by L-NAME 400 mg/liter in drinking water
Method: (§1) The experiment was carried out according to the method described by M. N. Muscarà et al. Br. J. Pharmacol. 133, 1314, 2001, and employing groups of 10 rats weighing each 200-250 g.
(§2) The compounds, suspended in 1% carboxymethylcellulose, were administered orally for two weeks at a daily dose of 10 mg/kg body weight.
(§3) Hypertension was induced by addition of L-NAME (N-omega-nitro-L-arginine methylester) to the drinking water at a concentration of 400 mg/liter. At the end of the treatment, the blood pressure was determined by introduction of a cannula into femoral artery and measurement with polygraphic transducer, 16 hours after the last administration.

[2] = Blood pressure effect after two weeks oral treatment in L-NAME hypertensive rats; assay type: in vivo; conditions: 10 mg/kg daily for two weeks, L-NAME in drinking water, femoral artery cannula, 16 hours after the last administration
Method: as §1, §2, §3

SMILES | gastric tolerability [1] | effect on blood pressure [2] | gastric damage, share of the treated animals [1] [%] | increase of the blood pressure (average) [2] [mmHg]
Cc1ccc(-c2cc(C(F)(F)F)nn2-c2ccc(S(=O)(=O)NC(=O)CCCO[N+](=O)[O-])cc2)cc1 [Example 4, N-[4-[5-(4-methylphenyl)-3-(trifluoromethyl)-1H-pyrazol-1-yl]phenylsulfonyl]-4-nitrooxy-butanamide] | well tolerated | no increase of the blood pressure |  | 
Cc1ccc(-c2cc(C(F)(F)F)nn2-c2ccc(S(N)(=O)=O)cc2)cc1 [celecoxib, 4-[5-(4-methylphenyl)-3-(trifluoromethyl)-1H-pyrazol-1-yl]benzenesulfon-amide] |  |  | 80 | 15
